Like-named read-outs stand apart in the source and are kept apart here.
Tests used:
EGFR Del19/C797S = EGFR Del19/C797S (Homo sapiens, UniProt P00533, C797S/DEL746-750); experiment: Biochemical EGFR kinase inhibition assay (Lance Ultra TR-FRET), double mutant del19/C797S
Procedure, shortened: (§1)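 Step 1: compound in kinase buffer, 0.003–10 μM. Step 2: kinase reaction 1 h at room temperature. Step 4: TR-FRET read at 615/665 nm; IC50 calculated.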

EGFR wildtype (WT) = EGFR wildtype (WT) (Homo sapiens, UniProt P00533); experiment: Biochemical EGFR kinase inhibition assay (Lance Ultra TR-FRET), wildtype
Sequence of EGFR wildtype (WT) (P00533 25-1210): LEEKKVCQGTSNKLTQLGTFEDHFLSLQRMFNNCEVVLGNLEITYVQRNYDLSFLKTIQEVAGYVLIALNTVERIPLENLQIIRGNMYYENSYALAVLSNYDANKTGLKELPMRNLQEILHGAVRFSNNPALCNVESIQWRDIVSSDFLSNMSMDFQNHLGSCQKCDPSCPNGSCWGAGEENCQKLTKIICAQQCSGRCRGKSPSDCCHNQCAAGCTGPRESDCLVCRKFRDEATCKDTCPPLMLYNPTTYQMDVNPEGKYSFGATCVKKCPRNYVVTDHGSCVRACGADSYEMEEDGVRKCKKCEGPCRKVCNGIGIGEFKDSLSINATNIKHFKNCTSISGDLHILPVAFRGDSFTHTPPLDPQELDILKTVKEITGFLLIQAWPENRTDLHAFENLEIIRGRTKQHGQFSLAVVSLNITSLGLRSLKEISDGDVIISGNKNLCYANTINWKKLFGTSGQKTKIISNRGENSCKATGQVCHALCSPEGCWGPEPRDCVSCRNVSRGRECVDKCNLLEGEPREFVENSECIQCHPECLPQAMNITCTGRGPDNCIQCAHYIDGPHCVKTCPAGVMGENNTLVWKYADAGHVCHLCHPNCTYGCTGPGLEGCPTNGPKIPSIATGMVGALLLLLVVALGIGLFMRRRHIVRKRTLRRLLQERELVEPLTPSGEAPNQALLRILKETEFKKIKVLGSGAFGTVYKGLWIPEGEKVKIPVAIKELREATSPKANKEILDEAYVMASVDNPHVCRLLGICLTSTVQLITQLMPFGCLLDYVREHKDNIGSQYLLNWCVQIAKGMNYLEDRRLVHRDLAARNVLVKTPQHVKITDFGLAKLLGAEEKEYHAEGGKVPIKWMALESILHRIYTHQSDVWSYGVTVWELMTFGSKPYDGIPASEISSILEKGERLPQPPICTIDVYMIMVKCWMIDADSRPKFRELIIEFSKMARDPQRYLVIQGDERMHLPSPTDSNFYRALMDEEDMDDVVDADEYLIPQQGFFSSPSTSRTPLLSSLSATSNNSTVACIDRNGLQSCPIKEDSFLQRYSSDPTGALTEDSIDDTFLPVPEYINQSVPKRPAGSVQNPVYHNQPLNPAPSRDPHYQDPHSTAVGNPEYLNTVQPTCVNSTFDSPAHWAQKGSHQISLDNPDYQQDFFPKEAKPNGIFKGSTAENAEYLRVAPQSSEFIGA
Procedure, shortened: as §1

EGFR L858R/T790M/C797S = EGFR L858R/T790M/C797S (Homo sapiens, UniProt P00533, C797S/L858R/T790M); experiment: Biochemical EGFR kinase inhibition assay (Lance Ultra TR-FRET), triple mutant L858R/T790M/C797S
Sequence of EGFR L858R/T790M/C797S (P00533 25-1210 T790M/C797S/L858R): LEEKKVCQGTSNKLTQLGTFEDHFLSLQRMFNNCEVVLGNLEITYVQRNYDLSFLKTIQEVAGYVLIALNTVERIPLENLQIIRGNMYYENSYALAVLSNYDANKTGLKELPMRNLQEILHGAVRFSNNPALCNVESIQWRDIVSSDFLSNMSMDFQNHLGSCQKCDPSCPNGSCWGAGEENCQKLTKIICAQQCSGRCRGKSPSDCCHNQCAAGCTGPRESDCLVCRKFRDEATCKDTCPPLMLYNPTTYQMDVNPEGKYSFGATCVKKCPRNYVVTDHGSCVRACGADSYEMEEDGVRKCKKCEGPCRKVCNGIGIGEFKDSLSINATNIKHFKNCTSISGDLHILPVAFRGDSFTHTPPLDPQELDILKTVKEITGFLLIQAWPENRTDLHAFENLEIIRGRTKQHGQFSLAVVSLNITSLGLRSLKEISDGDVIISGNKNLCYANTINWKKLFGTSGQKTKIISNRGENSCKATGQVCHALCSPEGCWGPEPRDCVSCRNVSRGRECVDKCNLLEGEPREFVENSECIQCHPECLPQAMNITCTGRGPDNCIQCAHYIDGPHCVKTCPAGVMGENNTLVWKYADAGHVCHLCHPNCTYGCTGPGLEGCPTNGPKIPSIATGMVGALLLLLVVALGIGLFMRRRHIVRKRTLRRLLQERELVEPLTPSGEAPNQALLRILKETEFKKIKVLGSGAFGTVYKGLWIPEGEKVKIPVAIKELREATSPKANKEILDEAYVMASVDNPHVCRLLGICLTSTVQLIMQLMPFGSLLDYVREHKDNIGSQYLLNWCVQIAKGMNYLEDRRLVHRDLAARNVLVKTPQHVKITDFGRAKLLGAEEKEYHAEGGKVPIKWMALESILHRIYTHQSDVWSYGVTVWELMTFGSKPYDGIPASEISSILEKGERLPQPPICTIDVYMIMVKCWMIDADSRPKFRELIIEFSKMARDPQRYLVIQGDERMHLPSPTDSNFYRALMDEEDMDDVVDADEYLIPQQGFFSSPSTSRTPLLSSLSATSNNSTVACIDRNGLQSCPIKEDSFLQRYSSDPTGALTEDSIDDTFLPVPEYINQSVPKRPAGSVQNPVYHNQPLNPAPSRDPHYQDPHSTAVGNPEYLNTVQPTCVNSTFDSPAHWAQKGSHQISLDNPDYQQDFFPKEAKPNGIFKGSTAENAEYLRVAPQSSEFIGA
Procedure, shortened: as §1

EGFR Del19/T790M/C797S = EGFR Del19/T790M/C797S (Homo sapiens, UniProt P00533, C797S/DEL746-750/T790M); experiment: Biochemical EGFR kinase inhibition assay (Lance Ultra TR-FRET), triple mutant del19/T790M/C797S
Sequence of EGFR Del19/T790M/C797S (P00533 with tags, fused parts or gaps DEL746-750/T790M/C797S): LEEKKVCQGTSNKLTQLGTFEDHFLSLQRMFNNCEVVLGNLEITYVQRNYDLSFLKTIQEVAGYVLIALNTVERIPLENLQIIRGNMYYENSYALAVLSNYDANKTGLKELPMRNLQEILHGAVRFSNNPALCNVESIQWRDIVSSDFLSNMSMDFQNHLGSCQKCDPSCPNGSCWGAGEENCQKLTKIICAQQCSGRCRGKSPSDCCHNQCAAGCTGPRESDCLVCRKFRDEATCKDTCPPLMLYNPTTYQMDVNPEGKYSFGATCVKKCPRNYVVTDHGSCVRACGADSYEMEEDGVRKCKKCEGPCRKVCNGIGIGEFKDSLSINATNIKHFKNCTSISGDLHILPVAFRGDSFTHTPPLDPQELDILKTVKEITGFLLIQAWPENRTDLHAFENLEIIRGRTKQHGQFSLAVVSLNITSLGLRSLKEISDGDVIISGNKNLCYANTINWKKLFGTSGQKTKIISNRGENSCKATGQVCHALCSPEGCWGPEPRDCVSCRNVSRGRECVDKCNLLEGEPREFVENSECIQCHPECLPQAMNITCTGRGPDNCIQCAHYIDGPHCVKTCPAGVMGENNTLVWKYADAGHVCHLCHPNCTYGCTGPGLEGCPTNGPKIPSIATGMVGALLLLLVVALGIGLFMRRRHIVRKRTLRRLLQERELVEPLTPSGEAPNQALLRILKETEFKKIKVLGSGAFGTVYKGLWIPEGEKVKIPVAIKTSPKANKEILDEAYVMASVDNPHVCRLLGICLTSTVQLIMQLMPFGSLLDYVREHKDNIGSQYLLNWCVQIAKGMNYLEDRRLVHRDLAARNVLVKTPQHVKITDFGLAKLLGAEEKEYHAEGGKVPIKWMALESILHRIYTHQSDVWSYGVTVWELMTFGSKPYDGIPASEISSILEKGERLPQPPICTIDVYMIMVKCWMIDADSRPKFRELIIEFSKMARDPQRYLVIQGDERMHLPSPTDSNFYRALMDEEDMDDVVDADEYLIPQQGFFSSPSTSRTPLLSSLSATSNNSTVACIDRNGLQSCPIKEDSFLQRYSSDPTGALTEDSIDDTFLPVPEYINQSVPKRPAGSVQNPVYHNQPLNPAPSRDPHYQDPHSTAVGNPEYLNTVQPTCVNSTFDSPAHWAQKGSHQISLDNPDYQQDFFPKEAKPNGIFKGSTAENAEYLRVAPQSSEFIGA
Procedure, shortened: as §1

EGFR L858R/C797S = EGFR L858R/C797S (Homo sapiens, UniProt P00533, C797S/L858R); experiment: Biochemical EGFR kinase inhibition assay (Lance Ultra TR-FRET), double mutant L858R/C797S
Sequence of EGFR L858R/C797S (P00533 25-1210 C797S/L858R): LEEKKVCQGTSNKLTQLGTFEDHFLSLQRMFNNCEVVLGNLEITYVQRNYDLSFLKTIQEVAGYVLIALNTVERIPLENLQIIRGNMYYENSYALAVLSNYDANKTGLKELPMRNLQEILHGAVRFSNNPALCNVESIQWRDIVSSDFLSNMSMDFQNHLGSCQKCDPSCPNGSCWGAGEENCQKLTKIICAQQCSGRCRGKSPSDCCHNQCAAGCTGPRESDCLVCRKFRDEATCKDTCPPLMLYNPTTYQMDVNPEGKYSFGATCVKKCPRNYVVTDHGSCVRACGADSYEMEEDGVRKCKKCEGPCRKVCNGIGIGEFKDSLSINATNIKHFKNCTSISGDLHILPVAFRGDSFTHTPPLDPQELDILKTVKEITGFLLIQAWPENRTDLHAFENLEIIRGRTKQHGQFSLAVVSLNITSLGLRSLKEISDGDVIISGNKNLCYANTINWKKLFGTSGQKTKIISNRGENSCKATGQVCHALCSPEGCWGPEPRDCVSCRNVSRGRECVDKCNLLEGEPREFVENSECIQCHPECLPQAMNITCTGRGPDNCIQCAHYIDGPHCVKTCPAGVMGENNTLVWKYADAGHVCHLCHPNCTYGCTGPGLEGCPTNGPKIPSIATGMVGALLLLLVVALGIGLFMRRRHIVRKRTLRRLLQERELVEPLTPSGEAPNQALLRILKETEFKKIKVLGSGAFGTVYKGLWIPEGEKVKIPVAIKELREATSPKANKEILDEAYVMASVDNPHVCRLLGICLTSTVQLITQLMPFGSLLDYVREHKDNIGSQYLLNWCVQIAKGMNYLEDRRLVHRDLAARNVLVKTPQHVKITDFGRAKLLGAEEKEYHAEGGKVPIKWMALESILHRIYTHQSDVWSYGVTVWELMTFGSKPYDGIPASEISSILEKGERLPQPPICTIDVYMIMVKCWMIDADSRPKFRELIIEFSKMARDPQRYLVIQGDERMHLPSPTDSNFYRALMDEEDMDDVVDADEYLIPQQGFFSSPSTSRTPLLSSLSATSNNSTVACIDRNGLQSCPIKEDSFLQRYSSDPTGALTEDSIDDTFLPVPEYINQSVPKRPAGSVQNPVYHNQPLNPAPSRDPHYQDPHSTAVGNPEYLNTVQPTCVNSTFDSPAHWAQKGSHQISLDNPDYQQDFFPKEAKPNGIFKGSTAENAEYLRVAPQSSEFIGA
Procedure, shortened: as §1

[1] = IC50 Del19/C797S (nM), 100 μM ATP
[2] = IC50 L858R/T790M/C797S (nM), 100 μM ATP
[3] = IC50 Del19/T790M/C797S (nM), 100 μM ATP
[4] = IC50 L858R/C797S (nM), 100 μM ATP
[5] = Km ATP, read-out: IC50 Del19/C797S (nM), Km ATP
[6] = Km ATP, read-out: IC50 WT (nM), Km ATP
[7] = Km ATP, read-out: IC50 L858R/T790M/C797S (nM), Km ATP
[8] = Km ATP, read-out: IC50 Del19/T790M/C797S (nM), Km ATP
[9] = Km ATP, read-out: IC50 L858R/C797S (nM), Km ATP
[10] = ATP at Km, read-out: IC50 Del19/C797S (nM), Km ATP
[11] = ATP at Km, read-out: IC50 WT (nM), Km ATP
[12] = ATP at Km, read-out: IC50 L858R/T790M/C797S (nM), Km ATP
[13] = ATP at Km, read-out: IC50 Del19/T790M/C797S (nM), Km ATP
[14] = ATP at Km, read-out: IC50 L858R/C797S (nM), Km ATP

IC50 (EGFR Del19/C797S; [1])	IC50 (EGFR wildtype (WT); IC50 WT (nM), 100 μM ATP)	IC50 (EGFR L858R/T790M/C797S; [2])	IC50 (EGFR Del19/T790M/C797S; [3])	IC50 (EGFR L858R/C797S; [4])	IC50 (EGFR Del19/C797S; [5])	IC50 (EGFR wildtype (WT); [6])	IC50 (EGFR L858R/T790M/C797S; [7])	IC50 (EGFR Del19/T790M/C797S; [8])	IC50 (EGFR L858R/C797S; [9])	IC50 (EGFR Del19/C797S; [10])	IC50 (EGFR wildtype (WT); [11])	IC50 (EGFR L858R/T790M/C797S; [12])	IC50 (EGFR Del19/T790M/C797S; [13])	IC50 (EGFR L858R/C797S; [14])	IC50 (EGFR Del19/C797S; Km ATP, read-out: IC50 Del19/C797S (nM) Km ATP)	IC50 (EGFR wildtype (WT); Km ATP, read-out: IC50 WT (nM) Km ATP)	IC50 (EGFR L858R/T790M/C797S; Km ATP, read-out: IC50 L858R/T790M/C797S (nM) Km ATP)	IC50 (EGFR Del19/T790M/C797S; Km ATP, read-out: IC50 Del19/T790M/C797S (nM) Km ATP)	IC50 (EGFR L858R/C797S; Km ATP, read-out: IC50 L858R/C797S (nM) Km ATP)	Compound
4.9 nM	> 10000 nM	2.3 nM	0.7 nM	28.1 nM																O=S(=O)(C1CC1)n1cc(-c2nccc(Nc3cc(N4CCC(O)CC4)c(C#Cc4cnn(CCF)c4)cn3)n2)cn1 [Example 28, 1-(2-((2-(1-(Cyclopropylsulfonyl)-1H-pyrazol-4-yl)pyrimidin-4-yl)amino)-5-((1-(2-fluoroethyl)-1H-pyrazol-4-yl)ethynyl)pyridin-4-yl)piperidin-4-ol]
3.5 nM	> 10000 nM	1.8 nM	0.6 nM	22.8 nM																O=S(=O)(C1CC1)n1cc(-c2nccc(Nc3cc(N4CCC(O)CC4)c(C#Cc4cnn(C5CC5(F)F)c4)cn3)n2)cn1 (centres unmarked) [Example 82, 1-(2-((2-(1-(Cyclopropylsulfonyl)-1H-pyrazol-4-yl)pyrimidin-4-yl)amino)-5-((1-(2,2-difluorocyclopropyl)-1H-pyrazol-4-yl)ethynyl)pyridin-4-yl)piperidin-4-ol]
8.3 nM	9220 nM	1.3 nM	0.7 nM	51.2 nM	6.6 nM	16.9 nM	0.3 nM	0.6 nM	2.7 nM											CC1(CO)CCN(c2cc(Nc3ccnc(-c4cnn(S(=O)(=O)C5CC5)c4)n3)ncc2C#CC2CCN(S(=O)(=O)C3CC3)C2)CC1 (centres unmarked) [Example 395, (1-(2-((2-(1-(Cyclopropylsulfonyl)-1H-pyrazol-4-yl)pyrimidin-4-yl)amino)-5-((1-(cyclopropylsulfonyl)pyrrolidin-3-yl)ethynyl)pyridin-4-yl)-4-methylpiperidin-4-yl)methanol]
249 nM	> 10000 nM	94.2 nM	46.5 nM	3900 nM																CC1(C#Cc2cnc(Nc3ccnc(-c4cnn(S(=O)(=O)C5CC5)c4)n3)cc2NC[C@H]2CC[C@H](CO)CC2)CC1 [Example 405, ((1r,4r)-4-(((2-((2-(1-(Cyclopropylsulfonyl)-1H-pyrazol-4-yl)pyrimidin-4-yl)amino)-5-((1-methylcyclopropyl)ethynyl)pyridin-4-yl)amino)methyl)cyclohexyl)methanol]
59.6 nM	> 10000 nM	2.9 nM	6.2 nM	116 nM						26.6 nM	105 nM	1 nM	2.4 nM	41.8 nM						CC1(CO)CCN(c2cc(Nc3ccnc(-c4cnn(S(C)(=O)=O)c4)n3)ncc2C#Cc2cnn(C(F)(F)F)c2)CC1 [Example 268, (4-Methyl-1-(2-((2-(1-(methylsulfonyl)-1H-pyrazol-4-yl)pyrimidin-4-yl)amino)-5-((1-(trifluoromethyl)-1H-pyrazol-4-yl)ethynyl)pyridin-4-yl)piperidin-4-yl)methanol]
1.1 nM	1250 nM	0.6 nM	1 nM	1.3 nM						0.4 nM	2.5 nM	0.4 nM	0.8 nM	0.1 nM						CC1(CO)CCN(c2cc(Nc3ccnc(-c4cnn(S(=O)(=O)C5CC5)c4)n3)ncc2C#CCCN2CCOCC2)CC1 [Example 285, (1-(2-((2-(1-(Cyclopropylsulfonyl)-1H-pyrazol-4-yl)pyrimidin-4-yl)amino)-5-(4-morpholinobut-1-yn-1-yl)pyridin-4-yl)-4-methylpiperidin-4-yl)methanol]
3.9 nM	> 10000 nM	0.8 nM	0.7 nM	30.1 nM	1.9 nM	9.7 nM	0.4 nM	0.6 nM	1.9 nM											O=S(=O)(C1CC1)n1cc(-c2nccc(Nc3cc(N[C@H]4CC[C@@H](CO)CC4)c(C#Cc4cnn(CCF)c4)cn3)n2)cn1 [Example 379, ((1s,4s)-4-((2-((2-(1-(Cyclopropylsulfonyl)-1H-pyrazol-4-yl)pyrimidin-4-yl)amino)-5-((1-(2-fluoroethyl)-1H-pyrazol-4-yl)ethynyl)pyridin-4-yl)amino)cyclohexyl)methanol]
5.1 nM	> 10000 nM	1.1 nM	1.1 nM	43.4 nM																CN1CCN(C2CCN(c3cc(Nc4ccnc(-c5cnn(S(=O)(=O)C6CC6)c5)n4)ncc3C#Cc3ccsc3)CC2)CC1 [Example 226, 2-(1-(Cyclopropylsulfonyl)-1H-pyrazol-4-yl)-N-(4-(4-(4-methylpiperazin-1-yl)piperidin-1-yl)-5-(thiophen-3-ylethynyl)pyridin-2-yl)pyrimidin-4-amine]
7.6 nM	> 10000 nM	17.7 nM	20.6 nM	67.3 nM																CC1(CO)CCN(c2cc(Nc3ccnc(-c4cnn(S(=O)(=O)C5CC5)c4)n3)ncc2C#Cc2ccccc2)CC1 [Example 256, (1-(2-((2-(1-(Cyclopropylsulfonyl)-1H-pyrazol-4-yl)pyrimidin-4-yl)amino)-5-(phenylethynyl)pyridin-4-yl)-4-methylpiperidin-4-yl)methanol]
80.7 nM	> 10000 nM	8.8 nM	4 nM	2780 nM											51.9 nM	667 nM	2.2 nM	3.7 nM	22.1 nM	Cn1cc(C#Cc2cnc(Nc3ccnc(-c4cnn(S(=O)(=O)C5CC5)c4)n3)cc2N[C@@H]2CCC[C@@H](O)C2)cn1 [Example 76, (1R,3R)-3-((2-((2-(1-(Cyclopropylsulfonyl)-1H-pyrazol-4-yl)pyrimidin-4-yl)amino)-5-((1-methyl-1H-pyrazol-4-yl)ethynyl)pyridin-4-yl)amino)cyclohexan-1-ol]
34.8 nM	> 10000 nM	8 nM	3.2 nM	1920 nM	13.1 nM	122 nM	1.3 nM	2.5 nM	82 nM											O=S(=O)(C1CC1)n1cc(-c2nccc(Nc3cc(NCC4CCC(O)CC4)c(C#CC4CCCO4)cn3)n2)cn1 (centres unmarked) [Example 375, (1 r,4r)-4-(((2-((2-(1-(Cyclopropylsulfonyl)-1H-pyrazol-4-yl)pyrimidin-4-yl)amino)-5-((tetrahydrofuran-2-yl)ethynyl)pyridin-4-yl)amino)methyl)cyclohexan-1-ol]
0.4 nM	196 nM	0.2 nM	0.3 nM	0.8 nM						0.1 nM	0.6 nM	0.1 nM	0.2 nM	0.2 nM						CN(C)CCCn1cc(C#Cc2cnc(Nc3ccnc(-c4cnn(S(=O)(=O)C5CC5)c4)n3)cc2N2CCC3(CC2)CC(C)(O)C3)cn1 [Example 152, 7-(2-((2-(1-(Cyclopropylsulfonyl)-1H-pyrazol-4-yl)pyrimidin-4-yl)amino)-5-((1-(3-(dimethylamino)propyl)-1H-pyrazol-4-yl)ethynyl)pyridin-4-yl)-2-methyl-7-azaspiro[3.5]nonan-2-ol]

— patent publication US11981658B2, “Substituted aminopyridine compounds as EGFR inhibitors” (YUHAN CORPORATION, priority 2021, dated 2024)
